Measurements from PubChem BioAssay AID248 (DTP/NCI, 2004).
“And” between values parts separate entries of the source, which are not always exact repeats. Equal values may be shown once. Inconclusive results and toxic doses are left out. No stated cut-off is given here; in the data, active means T/C of 150% or more; inactive means T/C below 125%.

System: L1210 leukemia ip in BDF1 mice, survival T/C
Experiment: NCI In Vivo Anticancer Drug Screen. Data for tumor model L1210 Leukemia (intraperitoneal) in B6D2F1 (BDF1) mice
Conditions: endpoint: mean survival time, higher = longer survival
Protocol: The antitumor activity of compounds was measured in mice bearing transplantable tumors. Survival or tumor size were measured and the results are expressed as the measurement made in the treated group (T) divided by the measurement made in the vehicle treated control group (C). The tumor model used in this assay is L1210 Leukemia (intraperitoneal) in B6D2F1 (BDF1) mice

[1] = dose: 100.0 mg/kg/injection, schedule: Q01DX009 (ip), vehicle: Klucel (hydroxypropylcellulose) (HPC)
[2] = dose: 200.0 mg/kg/injection, schedule: Q01DX009 (ip), vehicle: Klucel (hydroxypropylcellulose) (HPC)
[3] = dose: 400.0 mg/kg/injection, schedule: Q01DX009 (ip), vehicle: Klucel (hydroxypropylcellulose) (HPC)
[4] = dose: 75.0 mg/kg/injection, schedule: Q01DX001 (ip), vehicle: saline
[5] = dose: 150.0 mg/kg/injection, schedule: Q01DX001 (ip), vehicle: saline

Measured: T/C

O=C(Nc1ccc(F)cc1)OCCOc1ccc([N+](=O)[O-])cc1
inactive: [1] 96 % of control | [2] 107 % of control | [3] 93 % of control

Cc1cccc(Cl)c1NC(=O)c1c(Cl)c(Cl)c(Cl)c(Cl)c1C(=O)O
inactive: dose: 100.0 mg/kg/injection, schedule: Q04DX002 (ip), vehicle: Klucel (hydroxypropylcellulose) (HPC) 110 % of control | dose: 200.0 mg/kg/injection, schedule: Q04DX002 (ip), vehicle: Klucel (hydroxypropylcellulose) (HPC) 104 % of control

O=C(O)c1ccc(SSc2ccc(C(=O)O)cc2)cc1
inactive: dose: 25.0 mg/kg/injection, schedule: Q01DX009 (ip), vehicle: carboxymethylcellulose (CMC) 93 % of control and 100 % of control | dose: 25.0 mg/kg/injection, schedule: Q04DX002 (ip), vehicle: carboxymethylcellulose (CMC) 96 % of control and 103 % of control | dose: 50.0 mg/kg/injection, schedule: Q01DX009 (ip), vehicle: carboxymethylcellulose (CMC) 97 % of control and 98 % of control | dose: 50.0 mg/kg/injection, schedule: Q04DX002 (ip), vehicle: carboxymethylcellulose (CMC) 94 % of control and 90 % of control | dose: 50.0 mg/kg/injection, schedule: Q04DX003 (ip), vehicle: carboxymethylcellulose (CMC) 98 % of control and 89 % of control | dose: 100.0 mg/kg/injection, schedule: Q01DX001 (ip), vehicle: carboxymethylcellulose (CMC) 93 % of control and 88 % of control | dose: 100.0 mg/kg/injection, schedule: Q01DX009 (ip), vehicle: carboxymethylcellulose (CMC) 92 % of control and 94 % of control and 100 % of control | dose: 100.0 mg/kg/injection, schedule: Q04DX003 (ip), vehicle: carboxymethylcellulose (CMC) 110 % of control and 89 % of control | dose: 200.0 mg/kg/injection, schedule: Q01DX001 (ip), vehicle: carboxymethylcellulose (CMC) 97 % of control and 100 % of control | dose: 200.0 mg/kg/injection, schedule: Q04DX002 (ip), vehicle: carboxymethylcellulose (CMC) 97 % of control | dose: 200.0 mg/kg/injection, schedule: Q04DX003 (ip), vehicle: carboxymethylcellulose (CMC) 88 % of control and 91 % of control | dose: 400.0 mg/kg/injection, schedule: Q01DX001 (ip), vehicle: carboxymethylcellulose (CMC) 110 % of control

CCN(C(C)=O)c1ccccc1C#N
inactive: [4] 107 % of control | [5] 107 % of control

NC1=NC(c2ccc(Cl)cc2)N(c2ccc(S(N)(=O)=O)cc2)C(N)=N1 (centres undefined)
inactive: [4] 102 % of control | [5] 96 % of control

C=CCc1ccc(OC(=O)Nc2ccc([N+](=O)[O-])cc2OC)c(OC)c1
inactive: [1] 96 % of control | [2] 93 % of control | [3] 96 % of control

O=C(NCc1ccncc1)Nc1ccccc1Cl
inactive: dose: 100.0 mg/kg/injection, schedule: Q04DX002 (ip), vehicle: saline 97 % of control | dose: 200.0 mg/kg/injection, schedule: Q04DX002 (ip), vehicle: saline 87 % of control

NC(N)=NC(=O)COc1ccc(Cl)cc1Cl
inactive: dose: 100.0 mg/kg/injection, schedule: Q04DX002 (ip), vehicle: saline + alcohol 100 % of control | dose: 200.0 mg/kg/injection, schedule: Q04DX002 (ip), vehicle: saline + alcohol 107 % of control

CCCCOC(=O)c1ccc(NC(=O)Nc2cc(C(F)(F)F)ccc2Cl)cc1
inactive: [1] 107 % of control | [2] 113 % of control | [3] 94 % of control

CC1=NN(c2ccc(S(=O)(=O)O)cc2)C(=O)C1
inactive: dose: 100.0 mg/kg/injection, schedule: Q04DX003 (ip), vehicle: Klucel (hydroxypropylcellulose) (HPC) 89 % of control | dose: 200.0 mg/kg/injection, schedule: Q04DX003 (ip), vehicle: Klucel (hydroxypropylcellulose) (HPC) 98 % of control | dose: 400.0 mg/kg/injection, schedule: Q04DX003 (ip), vehicle: Klucel (hydroxypropylcellulose) (HPC) 91 % of control

O=C(O)/C(=C\c1ccncc1)c1cccc2ccccc12
inactive: dose: 100.0 mg/kg/injection, schedule: Q04DX003 (ip), vehicle: saline with Tween-80 100 % of control | [2] 105 % of control | dose: 200.0 mg/kg/injection, schedule: Q04DX003 (ip), vehicle: saline with Tween-80 98 % of control | [3] 102 % of control | dose: 400.0 mg/kg/injection, schedule: Q04DX003 (ip), vehicle: saline with Tween-80 91 % of control
